For 8 compounds, GI50 and TGI results are on record in PubChem BioAssay (NCI).

Common to all, as to experiment: DTP human tumour cell line panel, 48 h
In test [1] the test system is SW-620 colon.
Test [2] concerns LOX IMVI melanoma.
Test [3] relates to CCRF-CEM leukemia.
In test [4] the test system is 786-0 renal.
The test system of test [5] is ACHN renal.
Test [6] concerns BT-549 breast.
The subject of test [7] is PC-3 prostate.
Test [8] deals with HT29 colon.
Test [9] concerns HOP-92 NSCLC.
The test system of test [10] is U251 CNS.

Several values for one entry are separate records, joined by “and”; a condition that tells them apart may be missing. Equal entries are not always repeated.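 1) Cells in 96-well plates. 2) Compound, 48 h, 5 concentrations. 3) Linear interpolation between surrounding doses. 4) Unreached endpoint = highest concentration. GI50 = concentration required for 50% inhibition of growth. TGI is the concentration that stops growth completely.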

What is called GI50 is the concentration that inhibits growth by half. The TGI is the concentration at which net growth stops. Low values mean more potent growth arrest, high ones less potent growth arrest.

Turning to `CC1=C/C(O)CC(=O)Cc2nc(co2)C(=O)N2CCC=C2C(=O)OC(C(C)C)C(C)/C=C\C(=O)NC/C=C\1` (centres undefined), the GI50 was 10.5 µM in test [1]; 12.9 µM in [2]; 7.35 µM in test [3]; 26.2 µM in [4]; 31.8 µM in test [5]; 65.4 µM in test [7]. Besides, the GI50 in test [8] was 13.2 µM; in test [9] it was 18 µM; in [10] it was 24.8 µM. In addition, the TGI is 35 µM and 37.7 µM in test [1]; 34.7 µM and 36.1 µM in test [2]; > 100 µM and 81.9 µM in [3]; 90.1 µM and 60.8 µM in test [4]; > 100 µM and 29.7 µM in test [5]; > 47.9 µM and 51.6 µM in test [6]. In addition, the total growth inhibition concentration (TGI) in test [7] was greater than 100 µM; in test [8], 30.7 µM and 31.8 µM; in test [9] it was greater than 86.2 µM; in test [10] it was greater than 100 µM.
For the compound `c1ccc2c(-c3cnn4cc(-c5ccc(N6CCNCC6)cc5)cnc34)ccnc2c1`, the GI50 in test [1] is 0.335 µM; in test [2], 1.27 µM; in test [3], 0.196 µM; in test [4], 0.527 µM; in [5] it was 1.09 µM; in [6] it was 1.6 µM. The GI50 in test [7] was 0.316 µM; in test [8], 0.547 µM; in test [9] it was 1.59 µM; in [10], 0.278 µM. The total growth inhibition concentration (TGI) in test [1] stood at 1.37 µM; in test [2] it was 2.58 µM; in [3], 0.447 µM; in [4], 1.03 µM; in [5], 2.29 µM; in test [6], 3.13 µM. The total growth inhibition concentration (TGI) in test [7] was found to be 1.52 µM; in [8], 1.91 µM; in test [9] it was 3.03 µM; in test [10] it was 1.08 µM.
`CNC(=O)/C(=C/c1ccc(OC)cc1)c1cc(OC)c(OC)c(OC)c1`: the concentration for total growth inhibition (TGI) in test [1], in [2], in [3], in test [4], in test [5] and in test [6] was greater than 100 µM throughout. The total growth inhibition concentration (TGI) in test [7] is greater than 100 µM; in test [8], 17.5 µM; in test [9], greater than 60.2 µM; in test [10], 23.1 µM.
For `Cc1ccc(N(/C=C/C(=O)C(F)(F)F)CC(=O)c2ccc(Cl)c(Cl)c2)cc1`, the GI50 was 2.88 µM in test [1]; 10.1 µM in test [2]; 4.89 µM in [3]; 13.5 µM in test [4]; 12.2 µM in test [5]; 2.22 µM in test [6]. For the same compound, the GI50 in test [7] was 7.06 µM; in [8], 4.73 µM; in test [9] it was 8.77 µM; in [10], 10.7 µM. Besides, the TGI in [1] came to 15.2 µM; in test [2], 21.8 µM; in test [3], 20.8 µM; in [4], 26.3 µM; in test [5] it was 24.6 µM; in test [6] it was 11.2 µM. In addition, the TGI was 20 µM in test [7], 17.9 µM in test [8], 21.1 µM in test [9] and 22.6 µM in test [10].
For the compound `Cn1ccc2c3c(=O)cc[nH]c3ccc21`, the GI50 in test [1], in [2], in test [3], in [4], in test [5] and in test [6] was greater than 100 µM in each case. The GI50 in [7] is greater than 100 µM; in [8] it was greater than 100 µM; in test [9], 69.2 µM; in test [10], greater than 100 µM. The total growth inhibition concentration (TGI) in [1], in test [2], in [3], in [4], in test [5] and in test [6] was greater than 100 µM in each case. The TGI in test [7], in test [8], in test [9] and in [10] was greater than 100 µM throughout.
On to `CC(C)C[C@H]1C(=O)N2CCC[C@H]2[C@]2(O)O[C@](NC(=O)[C@@H]3C=C4c5cccc6[nH]c(Br)c(c56)C[C@H]4N(C)C3)(C(C)C)C(=O)N12`, for which the TGI in test [1], in [2], in [3], in [4], in test [5] and in test [6] was greater than 100 µM each time. Moreover, the TGI in [7], in test [8], in test [9] and in test [10] was greater than 100 µM in each case.
Consider `CCOc1ccc2c(c1)C(=O)c1c-2n(CCCN)c(=O)c2cc([N+](=O)[O-])ccc12`, for which the GI50 was 0.0516 µM in [1]; 0.0144 µM in test [2]; less than 0.01 µM in test [3]; 0.0291 µM in test [4]; 0.0101 µM in [5]; 0.473 µM in test [6]. Moreover, the GI50 in test [7] is 0.297 µM; in test [8], 0.126 µM; in test [9] it was 0.0969 µM; in [10] it was 0.0103 µM. In addition, the TGI in test [1] was 1.36 µM; in test [2] it was 1.15 µM; in test [3] it was 0.0208 µM; in [4], 0.214 µM; in test [5], 1.17 µM; in test [6], 1.62 µM. The TGI in [7] turned out to be 2.14 µM; in test [8] it was 1.12 µM; in test [9], 1.91 µM; in test [10] it was 1.22 µM.
For the compound `OCc1ncc(-c2ccccc2)s1`, the GI50 in test [1], in test [2], in test [3], in test [4], in [5] and in [6] was greater than 100 µM throughout. Moreover, the GI50 was greater than 100 µM in [7], greater than 100 µM in test [8], 76.5 µM in test [9] and greater than 100 µM in test [10]. Besides, the total growth inhibition concentration (TGI) in test [1], in test [2], in [3], in test [4], in test [5] and in test [6] was greater than 100 µM in each case. Also, the TGI in [7], in test [8], in test [9] and in test [10] was greater than 100 µM each time.
